# “And” between values parts separate entries of the source, which are not always exact repeats. Equal entries are not always repeated. Where two headings read alike, the source gives them in different places.
# Assays:
# host macrophages = settings: 24 hours
# [1] = system: C. burnetii (Phase II Nine Mile strain); type: cell-based; settings: 96 hours
# TLR-1 to 10 = assay: TLR activation assay (THP1-Blue-CD14/SEAP); type: cell-based; settings: securinine 50 or 25 μM, 24 hours
# Phase II C. burnetii [2] = type: in vivo
# Phase II C. burnetii [3] = type: cell-based; settings: 96 hours
# cathepsin D = type: cell-based, mouse
# p38 map kinase = assay: p38 MAP kinase Western blot in Monomac-1 cells; type: cell-based, human; settings: 50 μM securinine
# [4] = system: C. burnetii (Phase II Nine Mile strain); type: cell-based; settings: 96 hours; remark: listed apart in the source
# [5] = concentrations as high as 10 mg/kg or greater i.p.; cited from earlier work
# C. burnetii = settings: 24 hours
# MonoMac-1 cells = assay: IL-8 assay in MonoMac-1 cells (ELISA); type: cell-based, human; settings: securinine 25 μM vs carrier/buffer control
# peritoneal cells = assay: Analysis of peritoneal cells after i.p. injection (FACS); type: in vivo, Balb/c mice; settings: peritoneum, data not shown
compound,measurement,setting,value
O=C1C=C2C=C[C@@H]3C[C@@]2(O1)[C@H]1CCCCN31 [securinine],direct killing of host cells,host macrophages,"Neither of the compounds, at concentrations that induced killing in vitro and in vivo, induced direct killing"
same,C. burnetii killing,[1],induced killing of C. burnetii
same,TLR-1 to 10 signaling (SEAP release),TLR-1 to 10,not detected
same,C. burnetii burden (viable bacterial counts),Phase II C. burnetii [2]; 96 hr,significantly (P value <0.05) lower
same,spleen weights,Phase II C. burnetii [2]; 96 hr,significantly (P value <0.05) lower
same,"reduction in C. burnetii, PCR assay for bacterial DNA","Phase II C. burnetii [2]; in vivo, ip",10 fold
same,"reduction in C. burnetii, viability assay","Phase II C. burnetii [2]; in vivo, ip",10 fold
same,percent C. burnetii killing,Phase II C. burnetii [3],> 80%
same,cathepsin D expression in infected macrophages,cathepsin D,induced cathepsin D expression
same,p38Map kinase activity (phospho-p38),p38 map kinase,induces p38Map kinase activity
same,C. burnetii killing,[4],induced killing of C. burnetii
same,toxicity,[5],without any obvious toxicity
same,direct killing of C. burnetii,C. burnetii,"Neither of the compounds, at concentrations that induced killing in vitro and in vivo, induced direct killing"
same,IL-8 secretion,MonoMac-1 cells,potent inducer of IL-8 secretion
Pam3CGDPKHPKSF [FSL-1],direct killing of host cells,host macrophages,"Neither of the compounds, at concentrations that induced killing in vitro and in vivo, induced direct killing"
same,"bacterial burden by PCR, lower than buffer alone",Phase II C. burnetii [2]; in vivo,> 10 fold
same,bacterial counts by PCR,Phase II C. burnetii [2]; in vivo,reduced bacterial counts
same,"efficiency in inducing enhanced C. burnetii clearance, share of animals",Phase II C. burnetii [2]; in vivo,61% and 100%
same,mice showing a reduction of C. burnetii,Phase II C. burnetii [2]; in vivo,11 mice
same,mice with lower spleen weight and bacterial burden,Phase II C. burnetii [2]; in vivo,5 out of 5
same,spleen weight,Phase II C. burnetii [2]; in vivo,significantly lower
same,splenomegaly (spleen weight),Phase II C. burnetii [2]; in vivo,reduced the splenomegaly
same,total C. burnetii DNA from spleen and liver,Phase II C. burnetii [2]; in vivo,lower
same,viable bacterial counts in the spleen (bacLight FACS assay),Phase II C. burnetii [2]; in vivo,enhanced clearance of C. burnetii
same,spleen C. burnetii numbers (PCR quantification of bacterial DNA),"Phase II C. burnetii [2]; in vivo, ip",reduced
same,neutrophil and macrophage activation: CD11b and Ly6C expression,peritoneal cells,increased
same,C. burnetii content of infected cells,[4],less C. burnetii
same,direct killing of C. burnetii,C. burnetii,"Neither of the compounds, at concentrations that induced killing in vitro and in vivo, induced direct killing"
lipopolysaccharide [LPS],benefit on C. burnetii infection in vivo,Phase II C. burnetii [2]; in vivo,No benefit
same,spleen C. burnetii numbers (PCR quantification of bacterial DNA),"Phase II C. burnetii [2]; in vivo, ip",did not have an effect
same,neutrophil and macrophage activation: CD11b and Ly6C expression,peritoneal cells,increased
same,C. burnetii content of infected cells,[4],less C. burnetii
